Measured values reported in PMC6675120, “Potent and selective inhibitors for M32 metallocarboxypeptidases identified from high-throughput screening of anti-kinetoplastid chemical boxes” (PLoS Neglected Tropical Diseases, 2019).
Read-outs that look alike come from different tables or passages of the source.

Columns and labels:
TcMCP-1 = TcMCP-1 (Trypanosoma cruzi, UniProt Q6ZXC0); assay: Continuous fluorogenic (FRET) TcMCP-1 assay with Abz-LKFK(Dnp)-OH, primary and secondary screening; assay type: biochemical; set-up: inhibition: dose or concentration left out as unconfirmed
Method: (§1) TcMCP-1 (MEROPS ID: M32.003) and TbMCP-1 were expressed as GST fusion proteins in E. coli BL21 (DE3) Codon Plus and purified as previously described.
(§2) TbMCP-1 and TcMCP-1 activities were assayed fluorometrically with Abz-RFFK(Dnp)-OH and Abz-LKFK(Dnp)-OH substrates, respectively, in 100 mM MOPS pH 7,2 containing 0,01% Triton X-100. Assays were performed in solid black 384-well plates (final reaction volume ~80 μL) and the hydrolysis of the K(Dnp)-OH group was monitored continuously at 30 °C with a Beckman Coulter DTX 880 Multimode Reader (Radnor, Pennsylvania, USA) using standard 320 nm excitation and 420 nm emission filter set.
(§3) In all cases, EDTA (final concentration 31,25 mM) was used as positive inhibition control.
(§4) Then, 40 μL of 100 mM MOPS, 0,01% Triton X-100 pH 7,2 containing TbMCP-1 (2,50 nM) or TcMCP-1 (0,34 nM) were added to each well, plates were homogenized (30 seg, orbital, medium intensity) and each well subjected to a single autofluorescence read (ex/em = 320/420 nm). Plates were incubated in darkness for 15 min at 30 °C and then 40 μL of Abz-RFFK(Dnp)-OH (4 μM) or Abz-LKFK(Dnp)-OH (0,8 μM) in assay buffer were added to each well to start the reaction. After homogenization (30 seg, orbital, medium intensity), the fluorescence of the Abz group (ortho-aminobenzoic acid) (ex/em = 320/420 nm) was acquired kinetically for each well (8 read cycles, one cycle every 300 seconds). Considering our previous experiences, the auto-fluorescent cut-off was arbitrarily set at 2x10^5 RFU to discard highly interfering compounds. All compounds were assayed in singlet (without replicates) due to the limited availability of stocks.
(§5) Raw screening measurements were used to determine the slope (dF/dt) of progression curves by linear regression for control and non-interfering compound wells. In the case of control-dependent hit selection criteria, percent inhibition percentage (%Inh) was calculated for each compound according to the following equation: Inh=100∙[1−(dF/dt^WELL−μ^C−)/(μ^C+−μ^C−)] (1) where dF/dt^WELL represents the slope of each compound well and μ^C+ and μ^C− the average of MCP (no-inhibition) and substrate (no-enzyme) controls, respectively.
(§6) Compounds selected from primary screening were re-tested in a dose-response manner (final concentration ranging from 7,5 to 62,5 μM) using identical assay conditions. To avoid any positional and/or association bias, we randomly defined the row position for each compound. One μL of compounds stock (10 mM in DMSO) and EDTA (31,25 mM) were added to the first well of column 1, followed by addition of 40 μL of 100 mM MOPS, 0,01% Triton X-100 pH 7,2 buffer. After addition of 20 μL of the same buffer to subsequent wells of the plate, 22 serial 2-fold dilutions were made horizontally. The last two positions of every row were used, alternatively, for C^+ and C^− controls to reduce any positional and/or association bias. Then, 20 μL of activity buffer containing TbMCP-1 or TcMCP-1 were added to each well, except for those corresponding to C^−; completed with 20 μL of activity buffer. After homogenization, 15 minutes of incubation at 30°C and autofluorescence measurement, the substrate (in activity buffer) was added to the previous mix. Data collection and processing were performed exactly as described above. Percentage of M32 MCPs residual activity was calculated for each condition according to the following equation: %Res.Act^MCP=100∙[(dF/dt^WELL−μ^C−)/(μ^C+−μ^C−)] (2) where dF/dt^WELL represents the slope of each compound well and μ^C+ and μ^C− the average of MCP (no-inhibition) and substrate (no-enzyme) controls, respectively.

TbMCP-1 = TbMCP-1 (Trypanosoma brucei, UniProt Q386R0); assay: Continuous fluorogenic (FRET) TbMCP-1 assay with Abz-RFFK(Dnp)-OH, primary and secondary screening; assay type: biochemical
Method: as §1, §2, §3, §4, §5
as §6, with “To” for “Compounds selected from primary screening were re-tested in a dose-response manner (final concentration ranging from 7,5 to 62,5 μM) using identical assay conditions. To”

NIH 3T3 = test system: NIH 3T3; set-up: method as in https://pubchem.ncbi.nlm.nih.gov/compound/91800813; conditions: ref https://pubchem.ncbi.nlm.nih.gov/compound/91800813, read-out: cytotoxicity IC50; cited from earlier work
[1] = molecular target: T. cruzi sterol 14-α demethylase (CYP51); set-up: method as in https://pubchem.ncbi.nlm.nih.gov/compound/91800813; conditions: ref https://pubchem.ncbi.nlm.nih.gov/compound/91800813; cited from earlier work
cruzipain = test system: cruzipain; set-up: method as in PMID 28935948; conditions: at 25 μM; cited from earlier work
T. cruzi = test system: T. cruzi; set-up: method as in https://pubchem.ncbi.nlm.nih.gov/compound/91800813; conditions: ref https://pubchem.ncbi.nlm.nih.gov/compound/91800813; cited from earlier work
T. brucei = test system: T. brucei; set-up: method as in https://pubchem.ncbi.nlm.nih.gov/compound/91800813; conditions: ref https://pubchem.ncbi.nlm.nih.gov/compound/91800813; cited from earlier work
L. donovani = test system: L. donovani; set-up: method as in https://pubchem.ncbi.nlm.nih.gov/compound/91800813; conditions: ref https://pubchem.ncbi.nlm.nih.gov/compound/91800813; cited from earlier work
[2] = four-parameter Hill fit of dose-response curve
[3] = secondary (31,5 µM) / primary (25 µM) inhibition

Chain of TcMCP-1 (Q6ZXC0 entry or part of it): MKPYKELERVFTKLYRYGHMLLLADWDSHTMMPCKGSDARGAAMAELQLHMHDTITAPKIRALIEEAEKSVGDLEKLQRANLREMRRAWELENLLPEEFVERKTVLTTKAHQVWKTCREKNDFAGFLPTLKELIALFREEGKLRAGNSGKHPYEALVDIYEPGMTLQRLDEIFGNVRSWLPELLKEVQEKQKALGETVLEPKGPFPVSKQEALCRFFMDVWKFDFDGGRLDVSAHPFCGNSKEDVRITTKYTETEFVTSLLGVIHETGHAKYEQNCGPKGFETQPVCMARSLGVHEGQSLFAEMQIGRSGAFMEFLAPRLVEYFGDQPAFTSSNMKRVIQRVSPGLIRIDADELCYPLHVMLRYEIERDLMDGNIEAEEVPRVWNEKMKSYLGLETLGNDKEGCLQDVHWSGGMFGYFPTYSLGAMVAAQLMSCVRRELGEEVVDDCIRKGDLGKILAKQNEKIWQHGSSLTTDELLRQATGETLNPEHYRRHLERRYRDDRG
Chain of TbMCP-1 (Q386R0 entry or part of it): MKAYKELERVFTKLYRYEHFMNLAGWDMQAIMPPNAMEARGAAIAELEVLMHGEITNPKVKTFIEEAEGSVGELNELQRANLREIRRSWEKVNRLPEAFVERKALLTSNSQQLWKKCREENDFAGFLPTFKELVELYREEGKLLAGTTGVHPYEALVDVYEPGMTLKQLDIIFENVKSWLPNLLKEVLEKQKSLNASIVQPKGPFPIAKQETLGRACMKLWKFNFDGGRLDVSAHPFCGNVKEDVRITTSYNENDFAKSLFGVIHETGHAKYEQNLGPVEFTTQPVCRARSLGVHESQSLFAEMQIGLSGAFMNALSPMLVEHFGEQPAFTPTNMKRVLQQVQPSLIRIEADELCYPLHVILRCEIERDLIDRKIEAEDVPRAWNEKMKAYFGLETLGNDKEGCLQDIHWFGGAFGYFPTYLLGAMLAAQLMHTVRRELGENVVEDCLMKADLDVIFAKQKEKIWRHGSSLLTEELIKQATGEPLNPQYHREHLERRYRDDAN

With N#Cc1ccc(S(=O)(=O)N2CCN(Cc3cccc(-c4ccncc4)c3)CC2)cc1 [TCMDC-143620] the IC50 (TcMCP-1) was 694 nM, the “TcMCP-1 Hill Slope” value (TcMCP-1; [2]) was -1,06 and the inhibition (TcMCP-1; read-out: TcMCP-1 Secondary screening Inhibition (%)) was 96.7%. The “TcMCP-1 2º/1º ratio” value (TcMCP-1; [3]) was 1,18, the IC50 (TcMCP-1; secondary screening, two-fold dilutions 7,5 pM to 62,5 μM, KM/[S] ~ 1, no replicates) was ≤ 10000 nM and the inhibition at 25 µM (TcMCP-1; single inhibitor concentration 25 µM) was 82.1%. For the same compound, the “potency on TbMCP-1 lower than on TcMCP-1” value (TbMCP-1; TbMCP-1 vs TcMCP-1) was ~ 7 fold, the “TbMCP-1 Hill Slope” value (TbMCP-1; [2]) was -1,461 and the “TbMCP-1 2º/1º ratio” value (TbMCP-1; [3]) was 2,14. The inhibition at 25 µM (TbMCP-1; single inhibitor concentration 25 µM, read-out: TbMCP-1 Primary screening Inhibition (%)) was 45.2%, the inhibition (TbMCP-1; single inhibitor concentration 31,5 µM) was 96.6% and the IC50 (NIH 3T3) was 13000 nM. For the same compound, the IC50 [1] was 79 nM, the cruzipain inhibition (cruzipain) was ~ 7,5% and the “activity against T. cruzi in culture” value (T. cruzi) was “potent activity”. The “activity on T. brucei” value (T. brucei) was “moderate but measurable activity” and the “activity on L. donovani” value (L. donovani) was “moderate but measurable activity”.
